Measurements: patent publication US12521393B2, “Cytotoxicity targeting chimeras for CCR2-expressing cells” (GLAXOSMITHKLINE INTELLECTUAL PROPERTY DEVELOPMENT LIMITED, priority 2021, dated 2026)
Structures can show the parent of a compound that is named as a salt.

Test system: endogenous target monocytes in human PBMC
Assay: PBMC ex vivo monocyte depletion flow cytometry assay (Example 200)
Assay type: cell-based
Conditions: with anti-cotinine antibody (SEQ ID NO: 11/12), 18-24 hours, EC50 in molar, read-out: Ex Vivo Depletion Assay pEC50 (converted)
Procedure: A human PBMC (peripheral blood mononuclear cells) monocyte depletion flow cytometry assay was developed to screen compounds in a 384-well plate format. This assay incorporated endogenous natural killer cells to deplete endogenous target monocytes.
To screen compounds in the human PBMC monocyte depletion flow cytometry assay, 11-point dose-response curves were made from 1 mM stocks in neat DMSO by serially diluting an ARM compound of Formula (I) four-fold into a 384-well plate row-wise. These serially diluted compounds were then stamped into a flat bottom polypropylene 384-well plate (Greiner Bio-One) at 100 nL/well. Fifty microliters of 30 μg/mL anti-cotinine antibody having a heavy chain sequence of SEQ ID NO: 11 and a light chain sequence of SEQ ID NO: 12 (rabbit variable region with human IgG1 Fc domain containing a DE mutation (S239D/1332E)) that had been diluted in assay medium (RPMI 1640 (Gibco) containing 10% fetal bovine serum (Gibco), 1% Glutamax (Gibco) and 1% sodium pyruvate (Corning) was added to the wells of the plate. The plate was centrifuged for 1 min at 500 rpm (revolutions per minute) and then shaken for 5 min at room temperature. The plate was incubated for 15 minutes at 37° C./5% CO2.
Frozen PBMC cells (HemaCare BioResearch) were thawed and centrifuged at 1,200 rpm for 4 minutes. The cells were diluted to a cell density of 2×10^6 cells/mL in assay medium. Fifty microliters of the diluted cells were added to the wells of the plate. The plate was centrifuged for 1 min at 500 rpm and incubated for 18-24 hours at 37° C./5% CO2.
After 18-24 hours incubation, 2 μL of 6.25 μg human FC block (BD Pharmingen) that was diluted in assay medium was added to the wells of the plate. The plate was centrifuged for 1 minute at 500 rpm and then incubated at room temperature for 15 minutes. Five microliters of 750 nM Helix NP NIR (Biolegend) that had been diluted in assay medium was added to the wells of the plate. Nine microliters of antibody cocktail containing 1/5 diluted fluorescein isothiocyanate (FITC) labeled anti-CD45 antibody (Beckman Coulter), PC7 labeled anti-CD14 antibody (Beckman Coulter) and phyocoerythrin (PE) anti-CD4 antibody (Beckman Coulter) was then added to the wells of the plate. The plate was centrifuged for 1 min at 500 rpm and incubated for 30 minutes at 4-8° C. Samples from the plate were run on BD FACS Canto II flow cytometer and data was analyzed using FlowJo software.
ARMs compounds of Formula (I) of the invention were tested for the ability to deplete monocytes in the above assay in one or more experimental runs and the results are shown in Table 3 below. Potency of the compounds of the invention is reported as a pEC50 value. The pEC50 value is the negative log of the EC50 value, wherein the EC50 value is the half maximal effective concentration measured in molar (M). For compounds tested in more than one experimental run, the pEC50 value is reported as an average or as the individual values measured

Structure (SMILES)	EC50
CC(C)N(C)[C@@H]1CC[C@H](N2CC[C@H](Nc3ncnc4ccc(C(F)(F)F)cc34)C2=O)[C@H](NC(=O)c2cccc(NCCOCCOCCOCCOCCOCCNC(=O)[C@H]3CC(=O)N(C)[C@@H]3c3cccnc3)n2)C1 [Example 124, N-((1R,2S,5R)-5-(Isopropyl(methyl)amino)-2-((S)-2-oxo-3-((6-(trifluoromethyl)quinazolin-4-yl)amino)pyrrolidin-1-yl)cyclohexyl)-6-((1-((2S,3S)-1-methyl-5-oxo-2-(pyridin-3-yl)pyrrolidin-3-yl)-1-oxo-5,8, 11, 14, 17-pentaoxa-2-azanonadecan-19-yl)amino)picolinamide]	100000 nM
CC(C)N(C)[C@@H]1CC[C@H](N2CC[C@H](Nc3ncnc4ccc(C(F)(F)F)cc34)C2=O)[C@H](NC(=O)c2ccc(NCCOCCOCCOCCOCCNC(=O)[C@H]3CC(=O)N(C)[C@@H]3c3cccnc3)nn2)C1 [Example 125, N-((1R,2S,5R)-5-(Isopropyl(methyl)amino)-2-((S)-2-oxo-3-((6-(trifluoromethyl)quinazolin-4-yl)amino)pyrrolidin-1-yl)cyclohexyl)-6-((1-((2S,3S)-1-methyl-5-oxo-2-(pyridin-3-yl)pyrrolidin-3-yl)-1-oxo-5,8,11,14-tetraoxa-2-azahexadecan-16-yl)amino) pyridazine-3-carboxamide]	15.8 nM
CC(C)N(C)[C@@H]1CC[C@H](N2CC[C@H](Nc3ncnc4ccc(C(F)(F)F)cc34)C2=O)[C@H](NC(=O)c2ccnc(NCCOCCOCCOCCOCCNC(=O)[C@H]3CC(=O)N(C)[C@@H]3c3cccnc3)c2)C1 [Example 126, N-((1R,2S,5R)-5-(Isopropyl(methyl)amino)-2-((S)-2-oxo-3-((6-(trifluoromethyl)quinazolin-4-yl)amino)pyrrolidin-1-yl)cyclohexyl)-2-((1-((2S,3S)-1-methyl-5-oxo-2-(pyridin-3-yl)pyrrolidin-3-yl)-1-oxo-5,8,11,14-tetraoxa-2-azahexadecan-16-yl)amino)isonicotinamide, 3Trifluoroacetic acid salt]	2.51 nM
CC(C)N(C)[C@@H]1CC[C@H](N2CC[C@H](Nc3ncnc4ccc(C(F)(F)F)cc34)C2=O)[C@H](NC(=O)c2cc(NCCOCCOCCOCCOCCNC(=O)[C@H]3CC(=O)N(C)[C@@H]3c3cccnc3)ncn2)C1 [Example 127, N-((1R,2S,5R)-5-(Isopropyl(methyl)amino)-2-((S)-2-oxo-3-((6-(trifluoromethyl)quinazolin-4-yl)amino)pyrrolidin-1-yl)cyclohexyl)-6-((1-((2S,3S)-1-methyl-5-oxo-2-(pyridin-3-yl)pyrrolidin-3-yl)-1-oxo-5,8,11, 14-tetraoxa-2-azahexadecan-16-yl)amino) pyrimidine-4-carboxamide]	2 nM
CC(C)N(C)[C@@H]1CC[C@H](N2CC[C@H](Nc3ncnc4ccc(C(F)(F)F)cc34)C2=O)[C@H](NC(=O)c2ccc(NCCOCCOCCOCCOCCNC(=O)[C@H]3CC(=O)N(C)[C@@H]3c3cccnc3)nc2)C1 [Example 128, N-((1R,2S,5R)-5-(Isopropyl(methyl)amino)-2-((S)-2-oxo-3-((6-(trifluoromethyl)quinazolin-4-yl)amino)pyrrolidin-1-yl)cyclohexyl)-6-((1-((2S,3S)-1-methyl-5-oxo-2-(pyridin-3-yl)pyrrolidin-3-yl)-1-oxo-5,8,11, 14-tetraoxa-2-azahexadecan-16-yl)amino) nicotinamide]	1.58 nM
CC(C)N(C)[C@@H]1CC[C@H](N2CC[C@H](Nc3ncnc4ccc(C(F)(F)F)cc34)C2=O)[C@H](NC(=O)c2cnn(C3CCN(CCOCCOCCOCCNC(=O)[C@H]4CC(=O)N(C)[C@@H]4c4cccnc4)CC3)c2)C1 [Example 129, N-((1R,2S,5R)-5-(Isopropyl(methyl)amino)-2-((S)-2-oxo-3-((6-(trifluoromethyl)quinazolin-4-yl)amino)pyrrolidin-1-yl)cyclohexyl)-1-(1-(1-((2S,3S)-1-methyl-5-oxo-2-(pyridin-3-yl)pyrrolidin-3-yl)-1-oxo-5,8,11-trioxa-2-azatridecan-13-yl)piperidin-4-yl)-1H-pyrazole-4-carboxamide]	1.26 nM
CC(C)N(C)[C@@H]1CC[C@H](N2CC[C@H](Nc3ncnc4ccc(C(F)(F)F)cc34)C2=O)[C@H](NC(=O)C2CCC(N3CC(C(=O)NCCOCCOCCNC(=O)[C@H]4CC(=O)N(C)[C@@H]4c4cccnc4)C3)CC2)C1 (stereo partly drawn) [Example 131, (2S,3S)-N-(2-(2-(2-(1-(4-(((1R,2S,5R)-5-(Isopropyl(methyl)amino)-2-((S)-2-oxo-3-((6-(trifluoromethyl)quinazolin-4-yl)amino)pyrrolidin-1-yl)cyclohexyl)carbamoyl)cyclohexyl)azetidine-3-carboxamido)ethoxy)ethoxy)ethyl)-1-methyl-5-oxo-2-(pyridin-3-yl)pyrrolidine-3-carboxamide]	0.501 nM
CC(C)N(C)[C@@H]1CC[C@H](N2CC[C@H](Nc3ncnc4ccc(C(F)(F)F)cc34)C2=O)[C@H](NC(=O)[C@H]2CC[C@@H](N3CCC(C(=O)NCCOCCOCCNC(=O)[C@H]4CC(=O)N(C)[C@@H]4c4cccnc4)C(F)(F)C3)CC2)C1 (stereo partly drawn) [Example 132, 3,3-Difluoro-1-((1S,4s)-4-(((1R,2S,5R)-5-(isopropyl(methyl)amino)-2-((S)-2-oxo-3-((6-(trifluoromethyl)quinazolin-4-yl)amino)pyrrolidin-1-yl)cyclohexyl)carbamoyl)cyclohexyl)-N-(2-(2-(2-((2S,3S)-1-methyl-5-oxo-2-(pyridin-3-yl)pyrrolidine-3-carboxamido)ethoxy)ethoxy)ethyl)piperidine-4-carboxamide]	0.631 nM
CC(C)N(C)[C@@H]1CC[C@H](N2CC[C@H](Nc3ncnc4ccc(C(F)(F)F)cc34)C2=O)[C@H](NC(=O)c2ccc([C@H]3CC[C@@H](C(=O)NCCOCCOCCNC(=O)[C@H]4CC(=O)N(C)[C@@H]4c4cccnc4)CC3)cc2)C1 [Example 133, (2S,3S)-N-(2-(2-(2-((1S,4s)-4-(4-(((1R,2S,5R)-5-(Isopropyl(methyl)amino)-2-((S)-2-oxo-3-((6-(trifluoromethyl)quinazolin-4-yl)amino)pyrrolidin-1-yl)cyclohexyl)carbamoyl)phenyl)cyclohexane-1-carboxamido)ethoxy)ethoxy)ethyl)-1-methyl-5-oxo-2-(pyridin-3-yl)pyrrolidine-3-carboxamide]	1.26 nM
CC(C)N(C)[C@@H]1CC[C@H](N2CC[C@H](Nc3ncnc4ccc(C(F)(F)F)cc34)C2=O)[C@H](NC(=O)[C@H]2CC[C@@H](N3CCC(C(=O)NCCOCCOCCNC(=O)[C@H]4CC(=O)N(C)[C@@H]4c4cccnc4)CC3)CC2)C1 [Example 134, 1-((1S,4s)-4-(((1R,2S,5R)-5-(Isopropyl(methyl)amino)-2-((S)-2-oxo-3-((6-(trifluoromethyl)quinazolin-4-yl)amino)pyrrolidin-1-yl)cyclohexyl)carbamoyl)cyclohexyl)-N-(2-(2-(2-((2S,3S)-1-methyl-5-oxo-2-(pyridin-3-yl)pyrrolidine-3-carboxamido)ethoxy)ethoxy)ethyl)piperidine-4-carboxamide, 3Formic acid salt]	0.126 nM
CC(C)N(C)[C@@H]1CC[C@H](N2CC[C@H](Nc3ncnc4ccc(C(F)(F)F)cc34)C2=O)[C@H](NC(=O)[C@H]2CC[C@H](N3CCC(C(=O)NCCOCCOCCNC(=O)[C@H]4CC(=O)N(C)[C@@H]4c4cccnc4)CC3)CC2)C1 [Example 135, 1-((1R,4r)-4-(((1R,2S,5R)-5-(Isopropyl(methyl)amino)-2-((S)-2-oxo-3-((6-(trifluoromethyl)quinazolin-4-yl)amino)pyrrolidin-1-yl)cyclohexyl)carbamoyl)cyclohexyl)-N-(2-(2-(2-((2S,3S)-1-methyl-5-oxo-2-(pyridin-3-yl)pyrrolidine-3-carboxamido)ethoxy)ethoxy)ethyl)piperidine-4-carboxamide 3Formic acid salt]	1.58 nM
CC(C)N(C)[C@@H]1CC[C@H](N2CC[C@H](Nc3ncnc4ccc(C(F)(F)F)cc34)C2=O)[C@H](NC(=O)[C@H]2CC[C@H](c3ccc(C(=O)NCCOCCOCCNC(=O)[C@H]4CC(=O)N(C)[C@@H]4c4cccnc4)cn3)CC2)C1 [Example 139, 6-((1R,4r)-4-(((1R,2S,5R)-5-(Isopropyl(methyl)amino)-2-((S)-2-oxo-3-((6-(trifluoromethyl)quinazolin-4-yl)amino)pyrrolidin-1-yl)cyclohexyl)carbamoyl)cyclohexyl)-N-(2-(2-(2-((2S,3S)-1-methyl-5-oxo-2-(pyridin-3-yl)pyrrolidine-3-carboxamido)ethoxy)ethoxy)ethyl)nicotinamide]	5.01 nM
